Test results: patent US20150225369A1, “DDR2 INHIBITORS FOR THE TREATMENT OF OSTEOARTHRITIS” (Merck Patent GmbH, priority 2012, published 2015)
Read-outs that look alike come from different tables or passages of the source.

Columns and labels:
[1] = target: T1, His-tagged human recombinant DDR-2 kinase domain (His-TEV-DDR2 467-855 aa) (Homo sapiens, UniProt Q16832); experiment: Autophosphorylation assay for biochemical activity testing of DDR2 (HTRF)
T1 construct: His-TEV-DDR2 467-855 aa
T1 sequence (Q16832 467-855): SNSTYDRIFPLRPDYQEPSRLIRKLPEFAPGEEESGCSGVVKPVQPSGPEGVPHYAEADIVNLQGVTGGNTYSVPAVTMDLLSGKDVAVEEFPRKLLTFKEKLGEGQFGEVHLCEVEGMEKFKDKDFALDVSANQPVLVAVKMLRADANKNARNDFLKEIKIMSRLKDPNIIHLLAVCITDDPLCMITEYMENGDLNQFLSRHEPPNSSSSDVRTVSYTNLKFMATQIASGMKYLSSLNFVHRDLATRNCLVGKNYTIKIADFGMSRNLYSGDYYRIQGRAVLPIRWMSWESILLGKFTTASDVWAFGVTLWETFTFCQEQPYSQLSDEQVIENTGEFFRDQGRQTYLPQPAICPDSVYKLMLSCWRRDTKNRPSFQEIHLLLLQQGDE
How it was run: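 Phospho-tyrosine was detected by HTRF between XL665 anti-6His and cryptate anti-phosphotyrosine PT66 antibodies, using the emission ratio. Inhibition was referenced to the inhibitor-free reaction.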

[2] = target: T2, HEK293 transfected with human DDR2 (Homo sapiens, UniProt Q16832); experiment: Phospho-DDR2 cellular assay (collagen II induced DDR2 phosphorylation, ELISA); type: cell-based; settings: read-out: IC50 [p-DDR2]
T2 construct: expressed in transfected cells; host or cells: HEK293 (PLT460F_(DDR2)-P7-1)
T2 sequence (Q16832 22-855): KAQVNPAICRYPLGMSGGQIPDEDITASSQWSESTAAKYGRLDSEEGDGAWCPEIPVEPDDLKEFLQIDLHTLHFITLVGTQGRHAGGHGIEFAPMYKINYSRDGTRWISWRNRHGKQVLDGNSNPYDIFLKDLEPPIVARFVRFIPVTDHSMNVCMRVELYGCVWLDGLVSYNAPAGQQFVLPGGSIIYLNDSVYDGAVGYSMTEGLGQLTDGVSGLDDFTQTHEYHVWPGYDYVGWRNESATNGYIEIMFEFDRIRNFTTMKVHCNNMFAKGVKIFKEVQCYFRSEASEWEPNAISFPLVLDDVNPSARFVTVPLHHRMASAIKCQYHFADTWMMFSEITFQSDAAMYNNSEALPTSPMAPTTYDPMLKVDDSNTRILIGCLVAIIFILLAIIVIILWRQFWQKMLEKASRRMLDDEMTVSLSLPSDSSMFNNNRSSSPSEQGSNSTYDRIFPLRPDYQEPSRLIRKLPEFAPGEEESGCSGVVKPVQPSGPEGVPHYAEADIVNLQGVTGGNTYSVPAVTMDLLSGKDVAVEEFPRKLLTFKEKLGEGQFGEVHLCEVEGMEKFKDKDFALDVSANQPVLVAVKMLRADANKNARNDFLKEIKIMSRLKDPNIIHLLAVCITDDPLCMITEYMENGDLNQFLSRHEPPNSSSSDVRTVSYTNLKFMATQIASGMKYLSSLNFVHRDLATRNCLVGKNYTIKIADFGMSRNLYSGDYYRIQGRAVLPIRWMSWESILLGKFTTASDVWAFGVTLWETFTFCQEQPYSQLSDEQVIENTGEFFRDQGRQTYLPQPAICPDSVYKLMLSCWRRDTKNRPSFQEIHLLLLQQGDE
How it was run: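 Cells seeded 48 h in 10% FBS, serum-starved 8 h, then given compound (5% DMSO) with 50 μg/ml chicken collagen II for 16 h at 37 °C. Lysates captured on anti-DDR2 antibody plates; phospho-DDR2 detected with HRP anti-phosphotyrosine antibody by chemiluminescence.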

[3] = biochemical DDR2 autophosphorylation
[4] = 4 nM DDR2 kinase domain, 150 μM ATP, 150 min at 22° C.
[5] = HEK293 transfected with human DDR2, 50 μg/ml chicken collagen II, 16 h

IC50 [1, 3]	IC50 ([2]; cellular phospho-DDR2)	IC50 [1, 4]	IC50 [2, 5]	SMILES
290 nM	130 nM			CNC(=O)c1cc(Oc2ccc(CNC(=O)Nc3cc(C)c(Cl)cc3OCCN3CCOCC3)cc2)ccn1 [compound 110, 4-(4-{3-[4-Chloro-5-methyl-2-(2-morpholin-4-yl-ethoxy)-phenyl]-ureidomethyl}-phenoxy)-pyridine-2-carboxylic acid methylamide]
52 nM	19 nM			CNC(=O)c1cc(Oc2ccc(CNC(=O)Nc3cc(Cl)ccc3OC)cc2F)ccn1 [compound 232, 4-{4-[3-(5-Chloro-2-methoxy-phenyl)-ureidomethyl]-2-fluoro-phenoxy}-pyridine-2-carboxylic acid methylamide]
34 nM	24 nM			CNC(=O)c1cc(Oc2ccc(CNC(=O)Nc3cc(C(F)(F)F)c(Cl)cc3OC3CCNCC3)cc2)ccn1 [compound 130, 4-(4-{3-[4-Chloro-2-(piperidin-4-yloxy)-5-trifluoromethyl-phenyl]-ureidomethyl}-phenoxy)-pyridine-2-carboxylic acid methylamide]
340 nM	74 nM			CNC(=O)c1cc(Oc2ccc(C(C)NC(=O)Nc3cc(Cl)ccc3OC)cc2)ccn1 (stereo not drawn) [compound 72, 4-(4-{1-[3-(5-Chloro-2-methoxy-phenyl)-ureido]-ethyl}-phenoxy)-pyridine-2-carboxylic acid methylamide]
74 nM	27 nM			CNCCOc1cc(C)c(Cl)cc1NC(=O)NCc1ccc(Oc2ccnc(C(=O)NC)c2)cc1 [compound 177, 4-(4-{3-[5-Chloro-4-methyl-2-(2-methylamino-ethoxy)-phenyl]-ureidomethyl}-phenoxy)-pyridine-2-carboxylic acid methylamide]
		420 nM	270 nM	CNC(=O)c1cc(Oc2ccc(COC(=O)Nc3ccc(Cl)c(C(F)(F)F)c3)cc2)ccn1 [compound 6]
91 nM	63 nM			CNC(=O)c1cc(Oc2ccc(CNC(=O)Nc3cc(C(F)(F)F)c(Cl)cc3OCCN3CCNCC3)cc2)ccn1 [compound 128, 4-(4-{3-[4-Chloro-2-(2-piperazin-1-yl-ethoxy)-5-trifluoromethyl-phenyl]-ureidomethyl}-phenoxy)-pyridine-2-carboxylic acid methylamide]
33 nM	15 nM			CNCCOc1ccc(C(F)(F)F)cc1NC(=O)NCc1ccc(Oc2ccnc(C(=O)NC)c2)c(C)c1 [compound 146, 4-(2-Methyl-4-{3-[2-(2-methylamino-ethoxy)-5-trifluoromethyl-phenyl]-ureidomethyl}-phenoxy)-pyridine-2-carboxylic acid methylamide]
		410 nM	87 nM	CNC(=O)c1cc(Oc2ccc(CNC(=O)Nc3cc(C)cnc3Cl)cc2C)ccn1 [compound 25]
26 nM	18 nM			CNC(=O)c1cc(Oc2ccc(CNC(=O)Nc3cc(C)c(Cl)cc3OCCN(C)C)cc2C)ccn1 [compound 139, 4-(4-{3-[4-Chloro-2-(2-dimethylamino-ethoxy)-5-methyl-phenyl]-ureidomethyl}-2-methyl-phenoxy)-pyridine-2-carboxylic acid methylamide]
30 nM	14 nM			CNC(=O)c1cc(Oc2ccc(CNC(=O)Nc3cc(Cl)ccc3OC)cc2)ccn1 [compound 19]
810 nM	745 nM			CNC(=O)c1cc(Oc2ccc(CNC(=O)Nc3c(Cl)cncc3Cl)cc2)ccn1 [compound 84, 4-{4-[3-(3,5-Dichloro-pyridin-4-yl)-ureidomethyl]-phenoxy}-pyridine-2-carboxylic acid methylamide]
		400 nM	5600 nM	Cn1cc(C(F)(F)F)cc(NC(=O)NCc2ccc(Oc3ccnc4ccc(C(F)(F)F)cc34)cc2)c1=O [compound 2]
100 nM	24 nM			CNC(=O)c1cc(Oc2ccc(CNC(=O)Nc3cc(C)c(Cl)cc3OC)cc2)ccn1 [compound 78, 4-{4-[3-(4-Chloro-2-methoxy-5-methyl-phenyl)-ureidomethyl]-phenoxy}-pyridine-2-carboxylic acid methylamide]
		130 nM	58 nM	CNC(=O)c1cc(Oc2ccc(CNC(=O)Nc3cc(C(F)(F)F)cnc3Cl)cc2)ccn1 [compound 24]
43 nM	16 nM			CNC(=O)c1cc(Oc2ccc(CNC(=O)Nc3cc(C(F)(F)F)ccc3OCC3CCCN3)cc2)ccn1 (stereo not drawn) [compound 156, 4-(4-{3-[2-(Pyrrolidin-2-ylmethoxy)-5-trifluoromethyl-phenyl]-ureidomethyl}-phenoxy)-pyridine-2-carboxylic acid methylamide]
200 nM	55 nM			CNC(=O)c1cc(Oc2ccc(CNC(=O)Nc3cc(C)c(Cl)cc3OCCN(C)C)cc2)ccn1 [compound 118, 4-(4-{3-[4-Chloro-2-(2-dimethylamino-ethoxy)-5-methyl-phenyl]-ureidomethyl}-phenoxy)-pyridine-2-carboxylic acid methylamide]
187 nM	52 nM			CNCCOc1cc(Cl)c(C)cc1NC(=O)NCc1ccc(Oc2ccnc(C(=O)NC)c2)cc1 [compound 125, 4-(4-{3-[4-Chloro-5-methyl-2-(2-methylamino-ethoxy)-phenyl]-ureidomethyl}-phenoxy)-pyridine-2-carboxylic acid methylamide]
760 nM	140 nM			CNC(=O)c1cc(Oc2ccc(CNC(=O)Nc3cc(OC)c(Cl)cc3OC)cc2)ccn1 [compound 83, 4-{4-[3-(4-Chloro-2,5-dimethoxy-phenyl)-ureidomethyl]-phenoxy}-pyridine-2-carboxylic acid methylamide]
400 nM	205 nM			CNC(=O)c1cc(Oc2ccc(CNC(=O)Nc3cc(C)ccn3)cc2C)ccn1 [compound 213, 4-{2-Methyl-4-[3-(4-methyl-pyridin-2-yl)-ureidomethyl]-phenoxy}-pyridine-2-carboxylic acid methylamide]
120 nM	25 nM			CNC(=O)c1cc(Oc2ccc(CNC(=O)Nc3cc(Cl)ccc3OC)cc2C)ccn1 [compound 100, 4-{4-[3-(5-Chloro-2-methoxy-phenyl)-ureidomethyl]-2-methyl-phenoxy}-pyridine-2-carboxylic acid methylamide]
40 nM	16 nM			CNC(=O)c1cc(Oc2ccc(CNC(=O)Nc3cc(C)c(Cl)cc3OCCCN(C)C)cc2C)ccn1 [compound 163, 4-(4-{3-[4-Chloro-2-(3-dimethylamino-propoxy)-5-methyl-phenyl]-ureidomethyl}-2-methyl-phenoxy)-pyridine-2-carboxylic acid methylamide]
310 nM	195 nM			CNCCOc1ccc(C)cc1NC(=O)NCc1ccc(Oc2ccnc(C(=O)NC)c2)cc1 [compound 170, 4-(4-{3-[5-Methyl-2-(2-methylamino-ethoxy)-phenyl]-ureidomethyl}-phenoxy)-pyridine-2-carboxylic acid methylamide]
19000 nM	11000 nM			CNC(=O)c1cc(Oc2ccc(CNC(=O)Nc3cccnc3Cl)cc2)ccn1 [compound 226, 4-{4-[3-(2-Chloro-pyridin-3-yl)-ureidomethyl]-phenoxy}-pyridine-2-carboxylic acid methylamide]
